According to US8598210B2, “Prolyl hydroxylase inhibitors and methods of use” (Akebia Therapeutics Inc., priority 2006, dated 2013):

Experiments:
[1] = molecular target: Recombinant human EGLN-1-179/426 (Homo sapiens (Human), UniProt Q9GZT9); assay: EGLN-1 Activity Assay (MALDI-TOF MS); format: biochemical; details: read-out: EGLIN1 IC50
Method: (§1) Hydroxylated peptide product is identified from substrate by the gain of 16 Da. Data defined as percent conversion of substrate to product is analyzed in GraphPad Prism 4 to calculate IC50 values.

EPO = assay: Mouse Serum EPO Assay (mouse ischemic hindlimb study); format: in vivo; details: for EPO response: in vivo response
Method: (§2) Mouse Ischemic Hindlimb Study
(§3) All animal work is conducted in accordance with the Guide for the Care and Use of Laboratory Animals (National Academy of Sciences; Copyright© 1996) and the Institutional Animal Care and Use Committee guidelines at Procter and Gamble Pharmaceuticals. We studied 9-10 week old male C57B1/6 mice from Charles River Laboratory (Portage, Mich.). The mice are orally dosed with vehicle (aqueous carbonate buffer, 50 mM; pH 9.0) or compound 1 in vehicle at 50 mg/kg or 100 mg/kg. The animals are dosed three times: day 1 at 8 am and 5 pm, day 2 at 8 am. One hour after the first dose, unilateral arterial ligation is performed under anesthesia using isoflurane. The femoral artery is ligated proximal to the origin of the popliteal artery. The contralateral limb underwent a sham surgical procedure. Ligation is performed in an alternating fashion between right and left hindlimbs. Two hours after 8 am dosing on day 2, we obtained blood by ventricular stick while the mice are anesthetized with isoflurane. Serum samples for EPO analysis are obtained using gel clot serum separation tubes. Heart, liver, and gastrocnemius muscles are harvested, snap-frozen in liquid nitrogen, and stored in −80° C. until use.
The mouse serum EPO is detected using Mouse Quantikine Erythropoietin ELISA kit from R&D Systems according to manufacturer's instructions.

[2] = molecular target: Full-length recombinant human EGLN-3 (His-MBP-TVMV-EGLN-3 fusion) (Homo sapiens (Human), UniProt Q9H6Z9); assay: EGLN-3 enzyme activity assay (MALDI-TOF MS); format: biochemical; details: read-out: EGLIN3 IC50
Method: as §1

HIF-1α = assay: Mouse Tissue HIF Western Blot Analysis; format: in vivo; details: FIG. 1; immunoblot analysis of nuclear extracts
Method: as §2, §3
Mouse Tissue HIF Western Blot Analysis
Tissues from mice stored at −80° C. are powdered with mortar and pestle chilled with liquid nitrogen. […]

Recombinant human EGLN-1-179/426, sequence (Q9GZT9 179-426): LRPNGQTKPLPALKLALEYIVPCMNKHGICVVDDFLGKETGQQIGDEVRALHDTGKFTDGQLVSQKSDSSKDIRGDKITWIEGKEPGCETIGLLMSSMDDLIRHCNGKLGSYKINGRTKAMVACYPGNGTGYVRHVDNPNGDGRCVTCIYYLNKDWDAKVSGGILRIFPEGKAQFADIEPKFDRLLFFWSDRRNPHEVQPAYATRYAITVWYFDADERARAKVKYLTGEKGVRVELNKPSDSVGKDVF
Full-length recombinant human EGLN-3 (His-MBP-TVMV-EGLN-3 fusion), sequence (Q9H6Z9 whole entry, the tested form may be a part): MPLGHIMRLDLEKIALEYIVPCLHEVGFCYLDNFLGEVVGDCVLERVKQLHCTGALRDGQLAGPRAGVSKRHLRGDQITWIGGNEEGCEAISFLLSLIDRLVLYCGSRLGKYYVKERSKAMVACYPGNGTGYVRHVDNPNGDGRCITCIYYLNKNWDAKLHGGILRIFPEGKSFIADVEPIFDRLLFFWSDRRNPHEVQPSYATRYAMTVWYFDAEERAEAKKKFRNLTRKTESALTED

| Molecule | IC50 [1] [µM] | EPO response (EPO) | IC50 [2] [µM] | further results |
| --- | --- | --- | --- | --- |
| O=C(O)CNC(=O)c1ncc(-c2cccc(-c3nn[nH]n3)c2)cc1O [({3-Hydroxy-5-[3-(2H-tetrazol-5-yl)phenyl]-pyridine-2-carbonyl}-amino)-acetic acid] | 0.4 | – | – | – |
| COC(=O)CNC(=O)c1ncc(-c2cccc(C(=O)N3CCCC3)c2)cc1O [({3-Hydroxy-5-[3-(pyrrolidine-1-carbonyl)-phenyl]-pyridine-2-carbonyl}-amino)-acetic acid methyl ester] | 2.5 | – | – | – |
| O=C(O)CNC(=O)c1ncc(-c2cccc(C(=O)N3CCCC3)c2)cc1O [({3-Hydroxy-5-[3-(pyrrolidine-1-carbonyl)phenyl]-pyridine-2-carbonyl}amino)-acetic acid] | 0.3 | – | – | – |
| Cc1ccc(-c2ccc(C(=O)NCC(=O)O)c(O)c2)cc1 [[(3-Hydroxy-4′-methyl-biphenyl-4-carbonyl)-amino]-acetic acid] | 20 | yes | – | – |
| COC(=O)CNC(=O)c1ncc(-c2ccc(C)cc2)cc1O [[(3-Hydroxy-5-(4-methylphenyl)-pyridine-2-carbonyl)-amino]-acetic acid methyl ester] | 4.1 | – | 52.3 | – |
| Cc1ccc(-c2cnc(C(=O)NCC(=O)O)c(O)c2)cc1 [[(3-Hydroxy-5-(4-methylphenyl)pyridine-2-carbonyl)amino]-acetic acid] | – | yes | 0.18 | – |
| COC(=O)CNC(=O)c1ncc(-c2ccccc2Cl)cc1O [{[5-(2-Chloro-phenyl)-3-hydroxy-pyridine-2-carbonyl]-amino}-acetic acid methyl ester] | – | yes | 37.5 | – |
| O=C(O)CNC(=O)c1ncc(-c2ccccc2Cl)cc1O [{[5-(2-Chlorophenyl)-3-hydroxypyridine-2-carbonyl]amino}-acetic acid] | – | yes | 0.39 | – |
| Cc1ccc(Cl)cc1-c1cnc(C(=O)NCC(=O)O)c(O)c1 [{[5-(2-Methyl-5-chlorophenyl)-3-hydroxypyridine-2-carbonyl]amino}-acetic acid] | 2.5 | – | – | – |
| COC(=O)CNC(=O)c1ncc(-c2cccc(C(N)=O)c2)cc1O [{[5-(3-Carbamoyl-phenyl)-3-hydroxy-pyridine-2-carbonyl]-amino}-acetic acid methyl ester] | 11.2 | – | – | – |
| O=C(O)CNC(=O)c1ncc(-c2cccc(Cl)c2)cc1O [{[5-(3-Chlorophenyl)-3-hydroxypyridine-2-carbonyl]amino}-acetic acid] | – | yes | – | erythropoietin level versus vehicle in mouse serum (EPO; FIG. 2, after oral dosing): elevated; stabilization of HIF-1α in mouse liver (HIF-1α): stabilization |
| N#Cc1cccc(-c2cnc(C(=O)NCC(=O)O)c(O)c2)c1 [{[5-(3-Cyanophenyl)-3-hydroxypyridine-2-carbonyl]amino}-acetic acid] | 0.19 | – | – | – |
| COC(=O)CNC(=O)c1ncc(-c2cccc(Cl)c2)cc1O [{[5-(3-chloro-phenyl)-3-hydroxy-pyridine-2-carbonyl]-amino}-acetic acid methyl ester] | 2.8 | yes | 21.4 | – |
| COC(=O)CNC(=O)c1ncc(-c2ccc(Cl)cc2)cc1O [{[5-(4-Chloro-phenyl)-3-hydroxy-pyridine-2-carbonyl]-amino}-acetic acid methyl ester] | 3.7 | – | – | – |
| N#Cc1ccc(-c2cnc(C(=O)NCC(=O)O)c(O)c2)cc1 [{[5-(4-Cyanophenyl)-3-hydroxypyridine-2-carbonyl]amino}-acetic acid] | – | yes | 0.56 | – |
| CC(C)Oc1ccc(-c2cnc(C(=O)NCC(=O)O)c(O)c2)cc1 [{[5-(4-Isopropoxyphenyl)-3-hydroxypyridine-2-carbonyl]amino}-acetic acid] | 1.6 | – | – | – |
| CC(C)c1ccc(-c2cnc(C(=O)NCC(=O)O)c(O)c2)cc1 [{[5-(4-Isopropylphenyl)-3-hydroxypyridine-2-carbonyl]amino}-acetic acid] | 0.44 | – | – | – |
| {[5-(4-Chlorophenyl)-3-hydroxypyridine-2-carbonyl]amino}-acetic acid | – | yes | 0.083 | – |
